The values below come from patent US10913727B2, “Modulators of the integrated stress pathway” (Calico Life Sciences LLC, priority 2016, dated 2021).

The structures appear in SMILES notation.

This experiment relates to HEK293T cells carrying the ATF4 luciferase reporter. Kind of experiment: ATF4-Luc assay, in vitro model of Vanishing Cell White Matter Disease (VWMD). To be noted: Homo sapiens, HEK-293T, 1 μg/mL tunicamycin, 7 hours, One Glo luminescence. It counts as cell-based. Put shortly: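 Stable HEK293T line with human ATF4 5′-UTR–firefly luciferase reporter treated with 1 μg/mL tunicamycin plus 200 nM compound for 7 h. Luminescence read; EC50 derived.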
The EC50 is the concentration at which the effect is half-maximal. For `COc1ncnc(OC)c1C(=O)NC12CC(NC(=O)COc3ccc(Cl)c(F)c3)(C1)C2` [Compound 118, N-{3-[2-(4-chloro-3-fluorophenoxy)acetamido]bicyclo[1.1.1]pentan-1-yl}-4,6-dimethoxypyrimidine-5-carboxamide], the EC50 is more than 2000 nM.

Regarding `CC(C)Cc1cc(C(=O)NC23CC(NC(=O)COc4ccc(Cl)c(F)c4)(C2)C3)on1` [Compound 348, N-{3-[2-(4-chloro-3-fluorophenoxy)acetamido]bicyclo[1.1.1]pentan-1-yl}-3-(2-methylpropyl)-1,2-oxazole-5-carboxamide], the EC50 was 50 to 250 nM.

For the molecule `N#CCc1ccccc1C(=O)NC12CC(NC(=O)COc3ccc(Cl)c(F)c3)(C1)C2` [Compound 206, N-{3-[2-(4-chloro-3-fluorophenoxy)acetamido]bicyclo[1.1.1]pentan-1-yl}-2-(cyanomethyl)benzamide], the EC50 lay in the range of 250 to 1000 nM.

For the molecule `O=C(COc1ccc(Cl)c(F)c1)NC12CC(Nc3nccn4nccc34)(C1)C2` [Compound 722, 2-(4-chloro-3-fluorophenoxy)-N-{3-[(pyrazolo[1,5-a]pyrazin-4-yl)amino]bicyclo[1.1.1]pentan-1-yl}acetamide], the EC50 was in the range of 50 to 250 nM.

Take `COc1ccc(F)c(C(=O)NC23CC(NC(=O)COc4ccc(Cl)c(F)c4)(C2)C3)c1` [Compound 520, N-{3-[2-(4-chloro-3-fluorophenoxy)acetamido]bicyclo[1.1.1]pentan-1-yl}-2-fluoro-5-methoxybenzamide]: the EC50 fell in the range of 250 to 1000 nM.

Consider `O=C(COc1ccc(Cl)c(F)c1)NC12CC(NC(=O)c3ccnc(CO)c3)(C1)C2` [Compound 741, N-{3-[2-(4-chloro-3-fluorophenoxy)acetamido]bicyclo[1.1.1]pentan-1-yl}-2-(hydroxymethyl)pyridine-4-carboxamide], for which the EC50 was more than 2000 nM.

`CC(=O)Nc1nc(C(=O)NC23CC(NC(=O)COc4ccc(Cl)c(F)c4)(C2)C3)cs1` [Compound 870, 2-acetamido-N-{3-[2-(4-chloro-3-fluorophenoxy)acetamido]bicyclo[1.1.1]pentan-1-yl}-1,3-thiazole-4-carboxamide]: the EC50 is more than 2000 nM.

In the case of `Cc1nc(C(=O)NC23CC(NC(=O)COc4ccc(Cl)c(F)c4)(C2)C3)c(C)o1` [Compound 795, N-{3-[2-(4-chloro-3-fluorophenoxy)acetamido]bicyclo[1.1.1]pentan-1-yl}-2,5-dimethyl-1,3-oxazole-4-carboxamide], the EC50 is more than 2000 nM.

For the molecule `CSc1ncccc1C(=O)NC12CC(NC(=O)COc3ccc(Cl)c(F)c3)(C1)C2` [Compound 828, N-{3-[2-(4-chloro-3-fluorophenoxy)acetamido]bicyclo[1.1.1]pentan-1-yl}-2-(methylsulfanyl)pyridine-3-carboxamide], the EC50 is more than 2000 nM.

Consider `Cn1cc(C(=O)NC23CC(NC(=O)COc4ccc(Cl)c(F)c4)(C2)C3)cn1` [Compound 246, N-{3-[2-(4-chloro-3-fluorophenoxy)acetamido]bicyclo[1.1.1]pentan-1-yl}-1-methyl-1H-pyrazole-4-carboxamide], for which the EC50 was in the range of 250 to 1000 nM.

For the molecule `O=C(COc1ccc(Cl)c(F)c1)NC12CC(NC(=O)c3noc4c3CCCC4)(C1)C2` [Compound 880, N-{3-[2-(4-chloro-3-fluorophenoxy)acetamido]bicyclo[1.1.1]pentan-1-yl}-4,5,6,7-tetrahydro-1,2-benzoxazole-3-carboxamide], the EC50 is more than 2000 nM.

Consider `Cn1ccnc1C(=O)NC12CC(NC(=O)COc3ccc(Cl)c(F)c3)(C1)C2` [Compound 904, N-{3-[2-(4-chloro-3-fluorophenoxy)acetamido]bicyclo[1.1.1]pentan-1-yl}-1-methyl-1H-imidazole-2-carboxamide], for which the EC50 is more than 2000 nM.

With `O=C(COc1ccc(Cl)c(Cl)c1)NC12CC(NC(=O)c3ccccc3)(C1)C2` [Compound 521, N-{3-[2-(3,4-dichlorophenoxy)acetamido]bicyclo[1.1.1]pentan-1-yl}benzamide], the EC50 lay within 50 to 250 nM.
